# Values quoted from earlier work, collected in patent US20230310343A1 (priority 2020, published 2023).
# Where two headings read alike, the source gives them in different places.
# Columns and labels:
# [1] = system: infectious bronchitis virus (IBV)
# [2] = target: N-terminus of the N protein (Avian infectious bronchitis virus, UniProt P69596); conditions: IBV N protein
# [3] = system: herpes simplex virus 1 (HSV-1); conditions: for selectivity index: HSV-1; for reduction of viral multiplication: HSV-1-infected cells
# [4] = system: influenza (H1N1) virus
# [5] = target: hemagglutinin (Influenza A virus, UniProt P03452)
# [6] = after penetration of the virus into the cell
# [7] = before the virus has entered the cell
# N-terminus of the N protein, sequence (P69596 31-156 limits assumed): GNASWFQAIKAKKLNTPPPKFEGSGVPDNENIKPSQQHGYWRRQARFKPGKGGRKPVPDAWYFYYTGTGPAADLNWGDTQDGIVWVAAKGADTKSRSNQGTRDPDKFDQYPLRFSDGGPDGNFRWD
# hemagglutinin, sequence (P03452 18-342 limits assumed): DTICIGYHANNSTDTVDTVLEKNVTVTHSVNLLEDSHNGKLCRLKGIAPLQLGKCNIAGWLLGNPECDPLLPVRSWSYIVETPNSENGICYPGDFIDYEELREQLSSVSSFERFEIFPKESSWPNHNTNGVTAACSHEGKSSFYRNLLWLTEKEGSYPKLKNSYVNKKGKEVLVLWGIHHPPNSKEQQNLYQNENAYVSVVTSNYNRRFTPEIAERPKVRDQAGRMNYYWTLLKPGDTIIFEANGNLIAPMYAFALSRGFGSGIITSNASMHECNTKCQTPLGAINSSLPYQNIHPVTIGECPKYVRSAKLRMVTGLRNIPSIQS
# hemagglutinin, sequence (P03452 344-565 limits assumed): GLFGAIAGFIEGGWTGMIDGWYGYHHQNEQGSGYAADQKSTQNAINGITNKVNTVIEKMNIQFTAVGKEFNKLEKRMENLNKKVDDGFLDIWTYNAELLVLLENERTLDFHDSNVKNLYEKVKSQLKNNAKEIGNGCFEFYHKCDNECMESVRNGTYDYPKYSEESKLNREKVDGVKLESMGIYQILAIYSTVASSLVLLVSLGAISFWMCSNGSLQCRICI
compound,measurement,setting,value
CC1=CCC2CC1C2(C)C (stereo not drawn) [alpha-pinene],reducing/inhibiting IBV replication,[1],inhibit viral replication
C=C1CCC2CC1C2(C)C (stereo not drawn) [beta-pinene],reducing/inhibiting IBV replication,[1],inhibit viral replication
"CC12CCC(CC1)C(C)(C)O2 [cineole, 1,8-cineole]",binding to the N-terminus of the N protein,[2],binds securely
same,reducing/inhibiting IBV replication,[1],highly effective
same,inhibition of IBV,[1]; [6],fully effective
same,inhibition of IBV,[1]; [7],moderate effectiveness
same,selectivity index,[3],low
same,reduction of viral multiplication,[3],significantly reduce viral multiplication
CC(C)=CCC/C(C)=C/C=O [citrol],reduction of viral multiplication,[3],significantly reduce viral multiplication
CC(C)=CCCC(C)CCO (stereo not drawn) [citronellol],effectiveness against influenza (H1N1),[4]; liquid phase,only partially effective
same,effectiveness against influenza (H1N1),[4]; vapor phase,effective
Cc1ccc(C(C)C)cc1 [cymene],reduction of viral multiplication,[3],significantly reduce viral multiplication
C=CCc1ccc(O)c(OC)c1 [eugenol],effectiveness against influenza (H1N1),[4]; liquid phase,effective
same,plaque reduction,[4]; liquid phase,one hundred
same,effectiveness against influenza (H1N1),[4]; vapor phase,effective
CC1=CCC(O)(C(C)C)CC1 (stereo not drawn) [terpinen-4-ol],reduction of viral multiplication,[3],significantly reduce viral multiplication
Cc1ccc(C(C)C)c(O)c1 [thymol],selectivity index,[3],low
same,reduction of viral multiplication,[3],significantly reduce viral multiplication
pinene,binding to the N-terminus of the N protein,[2],binds to the N-terminus of the N protein
same,inhibition of IBV,[1]; [6],fully effective
same,inhibition of IBV,[1]; [7],moderate effectiveness
same,reduction of viral multiplication,[3],significantly reduce viral multiplication
same,inhibition of hemagglutinin activity,[5],able to inhibit
terpinene,reduction of viral multiplication,[3],significantly reduce viral multiplication
